Measured values published in patent US10675293B2, “Nucleoside agents for the reduction of the deleterious activity of extended nucleotide repeat containing genes” (The Board of Trustees of the Leland Stanford Junior …, priority 2015, dated 2020).

Experiments:
21-VS cells (HA-Venus) = assay: Control fluorescence of 21-VS stable cells expressing intact Venus; type: cell-based; conditions: higher concentration, where BiFC reduction has reached its plateau
Description: The HA-Supt4h-YC and FLAG-NGN-YN fragments were amplified by PCR using plasmid constructs described above and sub-cloned individually into the pTRE-tight-BI vector (Clontech Laboratories), which contain a bi-directional CMV promoter under the control of tetracycline. The coding sequence of yellow fluorescence protein Venus with a HA-epitope in its N-terminus was PCR-amplified and cloned into the vector to generate pTRE-HA-Venus.
Tet-on HeLa cells were transfected with linearized pTRE-HA-Supt4h-VC-Flag-NGN-VN plasmid construct using LipofectAMINE 2000 (Invitrogen). After transfection, cells were cultured initially in growth medium containing puromycin (1 μg/ml) and then selected for clones that show YFP fluorescence in the presence of tetracycline (4 μg/ml). The stable line having the strongest fluorescence signal was isolated and designated as 2-PN4. […]
Stable lines 2-PN4 and 21-VS were pre-cultured in 6-well plates, followed by an incubation of Doxycycline (4 μg/ml) together with various concentrations of chemical compounds for 24 hr. Cells were washed with PBS (Sigma) and monitored by microscope (20× magnification). Photos were taken using Nikon D500 camera with a setting of ISO 1600, shutter 1/200 for the light images, and shutter ½ for the fluorescence images. […] The average of overall fluorescence signal was determined and compared to the one observed in DMSO-treated control sample. […]

[1] = biological target: T1, Supt4h-GL1 / NGN-GL2 interaction (Homo sapiens, UniProt O00267+P63272); assay: Split Gaussia luciferase complementation assay in M2-8 (HEK-293) cells; type: cell-based; conditions: M2-8 cells, RSL1 150 nM
T1 construct: the amino terminal domain of Supt5h (NGN); expressed in transfected cells; host or cells: M2-8, a clone of 293-R1 (HEK 293), RSL1-induced
Description: ii: M2-8 is a cloned 293-R1 cell which can inducibly express pNEBR-X1-Supt4h-G1-NGN-G2 by addition of RSL1. Two point mutations (M431 and M1101) were introduced to the GL1 and GL2 for better stability according to “A high-throughput cell-based Gaussia luciferase reporter assay for identifying modulators of fibulin-3 secretion” published on J Biomol Screen. 2013 July; 18(6):647-58. The cell line was selected by Hygromycin.
Plasmids harboring the Gluc1 and Gluc2 were co-transfected in a 1:1 ratio into 293-R1 cells plated on tissue culture treated 24-well plates using Lipofectamine 2000 according to the manufacturer's instruction. […] Signal intensities (integrated 100 ms) were read on Tecan Infinite M200 or M1000.
Human genes encoding the Supt4h protein or the amino terminal domain of Supt5h (NGN) were each fused with genes that encode subunits (GLuc1 or GLuc2) of Gaussia princeps luciferase to generate Supt4h-GL1 and NGN-GL2. […] The Gausssia luciferase substrate, native Coelenterazine, was added at a final concentration of 10 μg/ml to extracts of cells containing the indicated constructs and the magnitude of luminescence was determined using a luminometer (Tecan Infinite M200) that detects light emitted by luciferase. […] The luciferase activity that is detected is very specific and results only from interaction between the Supt4h and NGN. […]

In the case of `O=c1cnn([C@@H]2O[C@H](CO)[C@@H](O)[C@H]2O)c(=O)[nH]1` [HD101, 6-Azauridine], the “fluorescence of 21-VS cells” value (21-VS cells (HA-Venus)) is reported as “markedly affected” and the “inhibition of Supt4h/NGN interaction (luciferase activity)” value [1] is reported as “inhibiting the interaction between Supt4h/NGN”.
